From ChEMBL document CHEMBL5465560, “Selectivity Literature for EUbOPEN Chemogenomic Library” (2024)
Blank lines part the entries; values can stand above or below the molecule they belong to.

Columns and labels:
[1] = biological target: Serine/threonine-protein kinase 32B (Homo sapiens) (UniProt Q9NY57); conditions: at 10 µM
[2] = biological target: Tyrosine-protein kinase Lyn (Homo sapiens, UniProt P07948); experiment: Selectivity interaction (Kinase panel (Invitrogen)) EUB0000639a LYN; conditions: at 200 nM
[3] = biological target: T1, Ephrin type-A receptor 1 (Homo sapiens) (UniProt P21709); experiment: Selectivity interaction (Kinase panel (Z-LYTE Assay)) EUB0001632a EPHA1; conditions: at 10 µM
T1 sequence (whole entry): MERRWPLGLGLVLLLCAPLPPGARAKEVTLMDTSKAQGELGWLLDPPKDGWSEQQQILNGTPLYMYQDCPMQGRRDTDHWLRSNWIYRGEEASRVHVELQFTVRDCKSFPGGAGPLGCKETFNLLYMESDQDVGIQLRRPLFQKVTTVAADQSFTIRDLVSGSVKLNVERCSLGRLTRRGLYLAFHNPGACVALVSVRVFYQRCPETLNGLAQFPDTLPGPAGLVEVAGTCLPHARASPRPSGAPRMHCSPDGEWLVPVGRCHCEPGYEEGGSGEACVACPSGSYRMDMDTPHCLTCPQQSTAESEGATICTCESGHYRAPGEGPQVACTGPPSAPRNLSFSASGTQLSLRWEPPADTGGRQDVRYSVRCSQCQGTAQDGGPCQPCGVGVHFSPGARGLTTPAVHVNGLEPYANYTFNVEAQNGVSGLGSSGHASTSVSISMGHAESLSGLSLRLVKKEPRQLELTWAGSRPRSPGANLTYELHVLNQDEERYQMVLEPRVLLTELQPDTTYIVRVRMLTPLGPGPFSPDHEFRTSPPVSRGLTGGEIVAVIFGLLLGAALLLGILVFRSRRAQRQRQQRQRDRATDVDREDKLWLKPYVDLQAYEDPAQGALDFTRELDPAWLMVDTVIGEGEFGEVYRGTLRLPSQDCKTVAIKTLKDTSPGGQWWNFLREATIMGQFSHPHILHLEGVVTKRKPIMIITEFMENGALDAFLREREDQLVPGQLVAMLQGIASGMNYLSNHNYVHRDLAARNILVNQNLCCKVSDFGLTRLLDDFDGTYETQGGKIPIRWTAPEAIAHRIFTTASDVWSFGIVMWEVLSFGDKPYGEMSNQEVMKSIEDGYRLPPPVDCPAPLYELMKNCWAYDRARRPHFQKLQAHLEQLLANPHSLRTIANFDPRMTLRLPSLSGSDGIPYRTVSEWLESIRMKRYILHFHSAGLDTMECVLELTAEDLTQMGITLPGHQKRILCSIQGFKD

[4] = biological target: TGF-beta receptor type-2 (Homo sapiens) (UniProt P37173); experiment: Selectivity interaction (KinomeScan (DiscoverX)) EUB0000695a TGFBR2; conditions: at 100 nM
[5] = biological target: Serine/threonine-protein kinase 32B (Homo sapiens) (UniProt Q9NY57); conditions: at 10 µM; remark: listed apart in the source
[6] = biological target: Serine/threonine-protein kinase 10 (Homo sapiens) (UniProt O94804); experiment: Selectivity interaction (KinomeScan (DiscoverX)) EUB0000229b STK10; conditions: at 10 µM
[7] = biological target: Tyrosine-protein kinase ABL2 (Homo sapiens, UniProt P42684); experiment: Selectivity interaction (KinomeScan (DiscoverX)) EUB0001079a ABL2; conditions: at 1 µM
[8] = biological target: Serine/threonine-protein kinase PLK1 (Homo sapiens, UniProt P53350); experiment: Selectivity interaction (KinomeScan (DiscoverX)) EUB0000655a PLK1; conditions: at 10 µM
[9] = biological target: Serine/threonine-protein kinase 38 (Homo sapiens) (UniProt Q15208); experiment: Selectivity interaction (ActivX KiNativ screen (ex vivo kinase selectivity in human PBMCs)) EUB0001619a STK38; type: cell-based; conditions: PBMC, at 1 µM
[10] = biological target: Interferon-induced, double-stranded RNA-activated protein kinase (Homo sapiens) (UniProt P19525); experiment: Selectivity interaction (KinomeScan (DiscoverX)) EUB0001619a EIF2AK2; conditions: at 1 µM
[11] = biological target: Ribosomal protein S6 kinase alpha-1 (Homo sapiens, UniProt Q15418); experiment: Selectivity interaction (ActivX KiNativ screen (ex vivo kinase selectivity in human PBMCs)) EUB0001619a RPS6KA1; type: cell-based; conditions: PBMC, at 1 µM
SRSF protein kinase 1 = SRSF protein kinase 1 (Homo sapiens, UniProt Q96SB4); experiment: Selectivity interaction (KinomeScan (DiscoverX)) EUB0000618a SRPK1; conditions: at 10 µM
[12] = biological target: Ribosomal protein S6 kinase alpha-5 (Homo sapiens) (UniProt O75582); experiment: Selectivity interaction (Kinase panel (DSF assay)) EUB0001559a RPS6KA5
[13] = biological target: Ribosomal protein S6 kinase alpha-3 (Homo sapiens, UniProt P51812); experiment: Selectivity interaction (Kinase panel (KiNativ target engagement assay in Jurkat cells)) EUB0001635a RPS6KA3; type: cell-based; conditions: Selectivity number of off-targets 0.0, Selectivity number of targets 233.0, Source Knowledge https://www.sciencedirect.com/science/article/pii/S2451945619300674?via%3Dihub, at 1 µM
Chain of Ribosomal protein S6 kinase alpha-3 (P51812 whole entry): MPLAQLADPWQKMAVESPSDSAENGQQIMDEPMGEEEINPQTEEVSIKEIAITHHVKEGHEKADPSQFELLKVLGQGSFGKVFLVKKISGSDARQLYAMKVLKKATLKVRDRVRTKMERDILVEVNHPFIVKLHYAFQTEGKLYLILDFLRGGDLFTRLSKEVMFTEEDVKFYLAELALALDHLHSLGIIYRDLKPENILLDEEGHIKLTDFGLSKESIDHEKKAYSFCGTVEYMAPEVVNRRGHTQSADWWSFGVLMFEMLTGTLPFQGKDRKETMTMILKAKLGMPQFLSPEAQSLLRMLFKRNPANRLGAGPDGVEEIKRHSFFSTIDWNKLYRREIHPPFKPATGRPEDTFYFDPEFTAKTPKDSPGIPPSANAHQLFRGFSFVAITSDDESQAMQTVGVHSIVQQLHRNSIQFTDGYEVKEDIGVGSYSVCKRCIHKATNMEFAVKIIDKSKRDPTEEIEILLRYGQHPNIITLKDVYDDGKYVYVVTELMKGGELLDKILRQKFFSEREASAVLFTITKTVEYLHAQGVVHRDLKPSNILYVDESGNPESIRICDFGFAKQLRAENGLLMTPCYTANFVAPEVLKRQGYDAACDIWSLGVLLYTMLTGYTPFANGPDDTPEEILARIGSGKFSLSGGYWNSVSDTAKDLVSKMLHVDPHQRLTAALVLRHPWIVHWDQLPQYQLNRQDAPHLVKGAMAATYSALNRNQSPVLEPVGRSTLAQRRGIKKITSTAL

Chain of Serine/threonine-protein kinase 32B (Homo sapiens) (Q9NY57 whole entry): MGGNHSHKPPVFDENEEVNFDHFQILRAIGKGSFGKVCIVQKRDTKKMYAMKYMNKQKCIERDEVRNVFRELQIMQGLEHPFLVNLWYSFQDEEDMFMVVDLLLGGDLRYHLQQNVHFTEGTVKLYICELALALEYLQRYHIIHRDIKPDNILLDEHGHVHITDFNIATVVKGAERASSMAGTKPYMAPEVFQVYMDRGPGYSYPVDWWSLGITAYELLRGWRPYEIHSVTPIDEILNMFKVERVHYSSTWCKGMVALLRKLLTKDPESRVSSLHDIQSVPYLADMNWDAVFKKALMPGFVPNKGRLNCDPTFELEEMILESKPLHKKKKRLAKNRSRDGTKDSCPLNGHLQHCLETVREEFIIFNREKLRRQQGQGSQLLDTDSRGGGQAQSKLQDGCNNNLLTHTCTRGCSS
Chain of Serine/threonine-protein kinase PLK1 (P53350 whole entry): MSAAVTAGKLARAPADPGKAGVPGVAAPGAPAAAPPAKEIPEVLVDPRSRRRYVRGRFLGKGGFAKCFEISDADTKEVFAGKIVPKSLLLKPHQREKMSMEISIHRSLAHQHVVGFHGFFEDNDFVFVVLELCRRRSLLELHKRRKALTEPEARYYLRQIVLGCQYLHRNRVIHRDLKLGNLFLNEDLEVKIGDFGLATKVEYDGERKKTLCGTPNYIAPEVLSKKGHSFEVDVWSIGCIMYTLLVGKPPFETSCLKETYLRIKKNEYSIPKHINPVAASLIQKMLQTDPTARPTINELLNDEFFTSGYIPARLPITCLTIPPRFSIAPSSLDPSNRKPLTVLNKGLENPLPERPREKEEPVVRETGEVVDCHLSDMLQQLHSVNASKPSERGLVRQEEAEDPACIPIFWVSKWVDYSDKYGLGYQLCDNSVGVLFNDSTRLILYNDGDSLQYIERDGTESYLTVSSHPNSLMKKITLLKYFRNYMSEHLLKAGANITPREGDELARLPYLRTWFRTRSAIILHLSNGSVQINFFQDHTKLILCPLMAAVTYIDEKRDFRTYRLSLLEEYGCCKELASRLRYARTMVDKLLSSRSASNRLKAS
Chain of Ribosomal protein S6 kinase alpha-5 (Homo sapiens) (O75582 whole entry, looked up): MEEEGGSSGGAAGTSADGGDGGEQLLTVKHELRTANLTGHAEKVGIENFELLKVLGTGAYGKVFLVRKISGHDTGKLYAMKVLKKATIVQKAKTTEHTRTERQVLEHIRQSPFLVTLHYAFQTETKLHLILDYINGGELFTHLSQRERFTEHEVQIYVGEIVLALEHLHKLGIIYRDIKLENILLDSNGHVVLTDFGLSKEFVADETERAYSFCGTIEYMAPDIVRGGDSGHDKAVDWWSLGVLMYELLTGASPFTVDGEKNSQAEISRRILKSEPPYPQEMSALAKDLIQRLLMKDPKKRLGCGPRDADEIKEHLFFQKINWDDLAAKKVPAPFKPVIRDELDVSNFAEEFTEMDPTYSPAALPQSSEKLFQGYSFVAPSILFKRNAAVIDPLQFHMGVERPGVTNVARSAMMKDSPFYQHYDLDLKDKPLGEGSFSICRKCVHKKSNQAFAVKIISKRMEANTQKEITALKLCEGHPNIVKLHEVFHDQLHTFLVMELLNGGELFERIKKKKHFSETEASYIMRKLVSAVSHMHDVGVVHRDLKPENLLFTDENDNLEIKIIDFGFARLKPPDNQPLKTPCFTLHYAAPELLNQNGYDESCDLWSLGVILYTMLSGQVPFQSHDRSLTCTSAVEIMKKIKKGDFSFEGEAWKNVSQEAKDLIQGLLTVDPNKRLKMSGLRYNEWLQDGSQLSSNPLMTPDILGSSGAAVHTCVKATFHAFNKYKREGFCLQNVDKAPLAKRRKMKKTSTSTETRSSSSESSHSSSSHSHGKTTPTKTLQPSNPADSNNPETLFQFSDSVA
Chain of Serine/threonine-protein kinase 10 (Homo sapiens) (O94804 whole entry, looked up): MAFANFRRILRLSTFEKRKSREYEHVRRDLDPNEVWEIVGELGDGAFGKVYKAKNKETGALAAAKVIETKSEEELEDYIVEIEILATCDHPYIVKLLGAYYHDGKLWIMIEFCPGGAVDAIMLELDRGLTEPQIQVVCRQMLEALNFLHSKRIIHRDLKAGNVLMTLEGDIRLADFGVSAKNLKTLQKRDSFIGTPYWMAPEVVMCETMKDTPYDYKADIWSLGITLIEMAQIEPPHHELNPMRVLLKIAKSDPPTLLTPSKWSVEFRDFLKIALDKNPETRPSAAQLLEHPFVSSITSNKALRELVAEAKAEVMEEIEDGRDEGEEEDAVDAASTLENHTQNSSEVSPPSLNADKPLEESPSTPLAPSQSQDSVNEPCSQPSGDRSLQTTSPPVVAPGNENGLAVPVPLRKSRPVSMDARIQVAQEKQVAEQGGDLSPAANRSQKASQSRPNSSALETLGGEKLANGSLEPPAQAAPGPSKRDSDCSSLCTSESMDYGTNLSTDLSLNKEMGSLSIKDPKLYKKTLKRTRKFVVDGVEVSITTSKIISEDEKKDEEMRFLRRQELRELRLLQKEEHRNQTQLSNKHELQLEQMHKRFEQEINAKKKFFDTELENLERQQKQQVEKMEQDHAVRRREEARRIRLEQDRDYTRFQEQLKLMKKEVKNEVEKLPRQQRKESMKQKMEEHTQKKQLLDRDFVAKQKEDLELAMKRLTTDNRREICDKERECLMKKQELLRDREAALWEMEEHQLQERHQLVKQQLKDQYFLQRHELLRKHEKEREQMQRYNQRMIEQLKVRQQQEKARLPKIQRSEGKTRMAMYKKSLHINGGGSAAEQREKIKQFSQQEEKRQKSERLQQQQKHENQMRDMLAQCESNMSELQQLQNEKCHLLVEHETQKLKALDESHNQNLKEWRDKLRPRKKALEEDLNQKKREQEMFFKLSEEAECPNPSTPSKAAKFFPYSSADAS
Chain of TGF-beta receptor type-2 (Homo sapiens) (P37173 whole entry): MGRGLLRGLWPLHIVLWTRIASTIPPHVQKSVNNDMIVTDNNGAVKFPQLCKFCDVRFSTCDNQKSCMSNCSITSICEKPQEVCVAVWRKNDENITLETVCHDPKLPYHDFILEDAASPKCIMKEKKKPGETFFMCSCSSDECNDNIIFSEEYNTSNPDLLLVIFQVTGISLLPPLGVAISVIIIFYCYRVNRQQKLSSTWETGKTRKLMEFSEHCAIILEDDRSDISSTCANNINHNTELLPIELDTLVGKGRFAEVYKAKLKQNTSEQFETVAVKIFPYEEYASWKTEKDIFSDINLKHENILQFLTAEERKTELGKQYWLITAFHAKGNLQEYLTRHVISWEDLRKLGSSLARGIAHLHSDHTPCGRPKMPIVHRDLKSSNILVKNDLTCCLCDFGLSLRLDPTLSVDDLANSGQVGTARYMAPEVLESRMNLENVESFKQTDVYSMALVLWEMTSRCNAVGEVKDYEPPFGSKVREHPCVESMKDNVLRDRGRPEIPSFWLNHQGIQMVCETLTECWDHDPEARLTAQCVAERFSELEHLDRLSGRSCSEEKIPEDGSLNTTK
Chain of Tyrosine-protein kinase Lyn (P07948 2-512 limits assumed): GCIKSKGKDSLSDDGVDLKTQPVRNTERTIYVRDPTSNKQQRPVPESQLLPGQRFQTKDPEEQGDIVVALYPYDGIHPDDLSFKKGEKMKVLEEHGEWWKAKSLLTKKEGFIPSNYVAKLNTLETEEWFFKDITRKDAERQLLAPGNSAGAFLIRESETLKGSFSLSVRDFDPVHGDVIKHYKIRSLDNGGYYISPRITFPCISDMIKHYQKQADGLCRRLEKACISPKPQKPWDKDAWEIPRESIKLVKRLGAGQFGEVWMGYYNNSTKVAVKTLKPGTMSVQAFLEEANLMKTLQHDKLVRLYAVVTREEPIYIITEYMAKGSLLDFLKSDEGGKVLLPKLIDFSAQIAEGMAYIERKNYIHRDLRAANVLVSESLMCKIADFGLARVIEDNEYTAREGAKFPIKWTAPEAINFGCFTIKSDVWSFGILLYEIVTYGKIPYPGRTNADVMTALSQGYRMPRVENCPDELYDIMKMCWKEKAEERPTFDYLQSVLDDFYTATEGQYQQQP

SMILES: Cc1cc([C@@H](C)Nc2ccccc2C(=O)O)c2nc(N3CCOCC3)cc(=O)n2c1 [AZD-6482]
% of control [1]: 71%

% of inhibition [2]: 14.9%
SMILES: CC[C@@H]1[C@H](F)C(=O)N[C@@H]1COc1nccc2cc(C(N)=O)c(OC)cc12 [ZIMLOVISERTIB]

% of control [3]: 2.3%
SMILES: Cn1cc(-n2cnc3c(NCc4nc5cc(Cl)c(Cl)cc5[nH]4)nc(N4CCOCC4)nc32)cn1

SMILES: Cc1cc(F)c(C(=O)Nc2cccc(-c3nncn3C(C)C)n2)cc1-n1cnc(C2CC2)c1
% of control [4]: 99%

% of control [5]: 100%
SMILES: CCN(CC)CCCCNc1ncc2cc(-c3cc(OC)cc(OC)c3)c(NC(=O)NC(C)(C)C)nc2n1

SMILES: COc1cc(N(C)c2ccnc3ccc(C(F)(F)F)cc23)cc(OC)c1OC
% binding [6]: 84%

SMILES: Nc1cnc(N2CCc3cc(S(=O)(=O)Nc4c(F)cc(Cl)cc4F)cc(N4CCCC4=O)c32)nc1 [TP-020n]
% of control [7]: 95%

SMILES: CN(C)CCOc1ccc(-c2nc(-c3ccncc3)c(-c3ccc4c(c3)CC/C4=N\O)[nH]2)cc1
% of control [8]: 100%

SMILES: N#Cc1cccc(-c2c[nH]c3ncnc(N4CCOCC4)c23)c1
% of inhibition [9]: 4%
% of control [10]: 100%
% of inhibition [11]: -3%

SMILES: O[C@H]1CC[C@H](Nc2ncc3nc(Nc4c(F)cc(F)cc4F)n([C@H]4CCOC4)c3n2)CC1
% of control (SRSF protein kinase 1): 100%

dTM [12]: 0.3 K
SMILES: CN(C(=O)c1cnn2cccnc12)c1cc2c(cc1N1CCOCC1)C(=O)N(C[C@@H](F)C(C)(C)O)C2

SMILES: C=CC(=O)Nc1ccc(C(=O)Nc2[nH]nc3c2CN(C(=O)N[C@H](CN(C)C)c2ccccc2)C3(C)C)cc1
% of engagement [13]: 12%
